Source: patent US10034885B2, “Corneal thickness modulating agent” (KOWA COMPANY, LTD., priority 2014, dated 2018)
Like-named read-outs stand apart in the source and are kept apart here.

What was measured:
[1] = target: Rho kinase; details: disclosed in Patent Document 3; read-out: 50% inhibitory concentration (IC50) for Rho kinase; cited from earlier work
[2] = tested on: cornea; test: Change of thickness of cornea in human, long-term eyedrop administration test; assay type: in vivo
Experimental: In a long-term administration test of Compound B in a subject having ophthalmologic disease, the influence on the cornea was examined (27-34 examples). In other words, in an group administered an eyedrop consisting of 0.4% Compound B twice a day for 52 weeks, the corneal thickness was measured using pachymeter before starting administration (week 0), 2 weeks after starting administration, 4 weeks after starting administration, and every 4 weeks thereafter. Measurement was performed five times, and the mean value calculated from the five measurements was adopted. In the measuring day, the drop was instilled in the eye at 9:00 and measurement was performed at 11:00. Note that at week 28, week 52, and during the follow-up (7-28 days after the last administration day), measurement was performed twice at 9:00 (at week 28 and week 52, it was done before the instillation) and 11:00. The upper part in FIG. 1 represents the result from the right eye, and the lower part in FIG. 1 represents the result from the left eye. The vertical axis represents changing values (μm) from week 0, and the horizontal axis represents the week for administration. At week 28, week 52, and during the follow-up (f/u), the measurement at 9:00 is represented with (0) and the measurement at 11:00 is represented with (2).

[3] = tested on: rabbit corneal endothelial cell; details: reported in Patent Document 1; cited from earlier work
[4] = target: Rho kinase; details: according to Non-Patent Document 7; read-out: 50% inhibitory concentration (IC50) for Rho kinase; cited from earlier work

In the case of CC1CNCCCN1S(=O)(=O)c1cccc2cncc(F)c12 (centres unmarked) [Compound A, 1-(4-fluoro-5-isoquinolinesulfonyl)-2-methyl-1,4-homopiperazine], the IC50 [1] is listed as 0.2 µM.
In the case of C[C@H]1CNCCCN1S(=O)(=O)c1cccc2cncc(F)c12 [Compound B, (S)-(−)-1-(4-fluoro-5-isoquinolinesulfonyl)-2-methyl-1,4-homopiperazine], the “thickness of the cornea during the period for administration” value ([2]; human subjects with ophthalmologic disease, 0.4% eyedrop twice a day for 52 weeks, pachymeter, vs week 0) is reported as “decreased”, the “thickness of the cornea during the continued administration” value ([2]; human, 0.4% eyedrop twice a day for 52 weeks) is reported as “held at a nearly constant value” and the “thickness of the cornea before instillation (0)” value ([2]; human, week 28 and week 52, measured at 9:00 before instillation) is reported as “had a tendency to return to the value before starting administration”. The “thickness of the cornea 2 hours after instillation (2)” value ([2]; human, week 28 and week 52, measured at 11:00) was “decreased”.
For O=S(=O)(c1cccc2cnccc12)N1CCCNCC1 [fasudil, 1-(5-isoquinolinesulfonyl)-1,4-homopiperazine], the “adhesive property of a rabbit corneal endothelial cell” value [3] is given as “enhanced”.
In the case of CC(N)[C@H]1CC[C@H](C(=O)Nc2ccncc2)CC1 (single isomer, unassigned; (+)) [Compound Y-27632, (+)-trans-4-(1-aminoethyl)-1-(4-pyridylaminocarbonyl)cyclohexane], the IC50 [4] is given as 0.11 µM.
In the case of C[C@@H](N)c1ccc(C(=O)Nc2ccnc3[nH]ccc23)cc1 [Compound Y-33983, (R)—(+)—N-(1H-pyrrolo[2,3-b]pyridin-4-yl)-4-(1-aminoethyl)benzamide], the IC50 [4] is given as 0.0036 µM.
